Reference: US20200129523A1, “SHIP INHIBITION TO INDUCE EXPRESSION OF GRANULOCYTE COLONY STIMULATING FACTOR IN A SUBJECT” (THE RESEARCH FOUNDATION FOR THE STATE UNIVERSITY OF NEW YORK, priority 2014, published 2020)

What was measured:
HSC compartment = assay: Flow cytometric quantitation of hematopoietic stem/progenitor populations and cellularity in bone marrow of treated mice; type: in vivo, C57BL/6NTac mice; conditions: K118 10 mg/kg i.p. 5 days, vs H2O
Description: HSC phenotype, cell-cycle progression, G-CSF neutralization, and CXCR4 MFI determination by FACS analysis was performed on whole bone marrow (WBM) cells harvested from a tibia and femur pair obtained from SHIPi and vehicle treated 8-12 week old male C57BL/6NTac mice (Taconic). Generation of the CD45.1×CD45.2 strain utilized in the CRU assay were obtained by intercrossing C57BL6/J (CD45.2) and B6.SJL (CD45.1), as previously described.^5 The SUNY Upstate Medical University Committee for Humane Use of Animals approved all animal experiments.
In vivo administration of 3AC was previously described.^14 Briefly, 3AC is resuspended as an emulsion in 0.3% Klucel/H20. Mice were treated via intraperitoneal injection every 24 hrs for 5 days at a final concentration of 26.5 mg/kg. Analysis and transplants were performed on day 6. The 3AC derivative K118 (Soluble SHIPi) was suspended in pure H2O and heated at 100° C. for ˜15 min to allow the compound to enter solution. The delivery method was the same as with 3AC, however, the mice were treated for 5 days at a final concentration of 10 mg/kg. Vehicle cohorts for 3AC were treated with 0.3% Klucel/H20 and K118 were treated with pure H2O.
Cell isolation was performed according to method detailed in Hazen et al.^6 Briefly, WBM was flushed from both femurs and tibias per mouse with a 25-gauge needle, red blood cell lysed (eBioscience), and resuspended in staining media comprised of Hanks Buffered Saline Solution (HBSS), 2% heat inactivated fetal bovine serum (FBS), and 10 mM HEPES (Sigma). The cells harvested for the CRU assay were flushed, red blood cell lysed, washed, and resuspended in sterile phosphate buffered saline (PBS). Peripheral blood mononuclear cells (PBMC) were collected via submandibular bleed in EDTA Micorvette tubes (SARSTEDT).
All antibodies were from BD Biosciences or eBioscience. All WBM, PBMC and BM derived MSC cell populations were Fc blocked on ice for 10 min prior to antibody staining. Global reconstitution was determined by staining PBMC with CD45.1-PeCy7 and CD45.2-APC. Multi-lineage repopulation was determined by staining PBMC with CD3-FITC (145-2C11), CD19-PerCP5.5 (1D3), Mac1-PE (M1/70), Gr1-Alexa700 (RB6-8C5) and NK1.1-APC-Cy7 (PK136). The Lin−cKit+Sca1+CD34−Flk2− (LSKF34−) phenotype was utilized to determine frequency of LT-HSC, ST-HSC, and MPP; the stain was comprised of Lin-PerCP 5.5, cKit-APC (2B8), Sca1-PeCy7 (D7), CD34-FITC (RAM34), Flk2-PE (A2F10). LSKF-CXCR4 stain was used to determine surface expression of the homing marker CXCR4. All cells were washed twice with staining media, resuspended in staining media plus DAPI for dead cell exclusion, and then analyzed on a flow cytometer LSRII (BD Biosciences). All flow cytometry data was analyzed using FlowJo (9.4.3) software.

HSC = assay: CRU assay (competitive repopulating units), primary and secondary; type: in vivo, mice
Description: CD45.1^+45.2^+-recipient mice were given a split dose of 550 Rads (x-ray source, RS2000-RAD source technologies, inc.) 4 hours apart for a lethal total dose of 1100 Rads. WBM (5×10^5) cells from 3AC (CD45.2) treated mice were competed with WBM cells from vehicle (CD45.1) treated mice and injected retro-orbitally into CD45.1^+45.2^+ hosts. PBMC multi-lineage reconstitution was evaluated every month post-transplant for 4 months. Transplanted mice were euthanized and serially transplanted to determine self-renewal capacity. Repopulating Units (RU) determination was previously decribed.^15 Briefly, RU=(C×CD45.2 repopulation %)/(100−CD45.2 repopulation %) where C=10^5 competitor cells.^6
Normal Repopulating units (RU) are calculated based on total number of competitor cells transplanted. Due to the expansion in the bone marrow compartment of SHIPi treated mice, we calculated the absolute RU numbers based on RU output determined by CRU assay and total BM cellularity. Total BM cellularity was determined via hemacytometer (BioRAD, TC20 cell counter) based on a total BM cells obtained from an intact set of femurs and tibias for each mouse in the study. Absolute RU=(Total BM cellularity/5×10^5)×RU.

## C[C@@]12CCC[C@H]1[C@@H]1CC[C@H]3C[C@@H](N)CC[C@]3(C)[C@H]1CC2.Cl [K118, 3β-amino-5α-androstane hydrochloride]
HSC compartment
  BM cellularity: significant increase
  LT-HSC in BM: significant increases
  MPP in BM: significant increases
  ST-HSC in BM: significant increases
HSC; K118 treated vs H2O treated donors
  absolute CRU numbers: significant increase
HSC; primary CRU, WBM of K118 treated vs H2O treated mice
  CRU activity: significant increase
